This note sets out measurements from ChEMBL document CHEMBL1909294, “Translating clinical findings into knowledge in drug safety evaluation--drug induced liver injury prediction system (DILIps)” (PLoS Comput Biol, 2011).

The subject of data set [1] is Hepatotoxicity.
For data set [2], the system named is Hepatotoxicity. The source holds these as a separate data set.
Data set [3] concerns Hepatotoxicity. This is another data set of the same source.
The test system of data set [4] is Hepatotoxicity. This is another data set of the same source.
In data set [5] the test system is Hepatotoxicity. The source holds these as a separate data set.
The subject of data set [6] is Hepatotoxicity. The source holds these as a separate data set.
For data set [7], the system named is Hepatotoxicity. This is another data set of the same source.
Data set [8] concerns Hepatotoxicity. This is another data set of the same source.
Data set [9] concerns Hepatotoxicity. This is another data set of the same source.
Data set [10] relates to Hepatotoxicity. This is another data set of the same source.
The subject of data set [11] is Hepatotoxicity. The source holds these as a separate data set.
The test system of data set [12] is Hepatotoxicity. The source holds these as a separate data set.
Data set [13] has as its system Hepatotoxicity. The source holds these as a separate data set.
The test system of data set [14] is Hepatotoxicity. The source holds these as a separate data set.
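Throughout, for HepSE Combined Scores: combined hepatic side effect score as listed in the training data of the Drug Induced Liver Injury Prediction System (DILIps).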
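Throughout, for HepSE bilirubinemia: bilirubinemia hepatic side effect score drawn from the DILIps training data, a prediction system for drug-induced liver injury; call rule not given here.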
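Throughout, for HepSE cholecystitis: Cholecystitis-related hepatic side effect score drawn from the DILIps (drug-induced liver injury prediction) training data set; call rule not given here.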
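Throughout, for HepSE cholelithiasis: hepatic side effect score for cholelithiasis, drawn from the DILIps training data for predicting drug-induced liver injury; call rule not given here.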
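Throughout, for HepSE cirrhosis: cirrhosis hepatic side effect score taken from the DILIps (drug-induced liver injury prediction) training set; call rule not given here.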
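Throughout, for HepSE elevated liver function tests: hepatic side effect score for raised liver function tests, as recorded in the DILIps training set used for predicting drug-induced liver injury.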
Throughout, for HepSE hepatic failure: call rule not given here.
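Throughout, for HepSE hepatic necrosis: score of hepatic side effects for hepatic necrosis, drawn from the training data of DILIps, a prediction system for drug-induced liver injury; call rule not given here.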
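Throughout, for HepSE hepatitis: Hepatitis-related hepatic side effect score taken from the training data of DILIps, a prediction system for drug-induced liver injury; call rule not given here.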
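Throughout, for HepSE hepatomegaly: hepatic side effect score for hepatomegaly, taken from the training set of the DILIps drug-induced liver injury prediction system; call rule not given here.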
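Throughout, for HepSE jaundice: Jaundice-related hepatic side-effect score drawn from the training data of the DILIps (drug-induced liver injury prediction system); call rule not given here.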
Throughout, for HepSE liver disease: call rule not given here.
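Throughout, for HepSE liver fatty: hepatic side effect score for fatty liver, taken from the DILIps training set for predicting drug-induced liver injury; call rule not given here.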
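Throughout, for HepSE liver function tests abnormal: hepatic side effect score taken from the DILIps (drug-induced liver injury prediction system) training data, here covering abnormal liver function test findings.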

With `CC1(C)C(C=C(Cl)Cl)C1C(=O)OCc1cccc(Oc2ccccc2)c1` (stereo unspecified) [PERMETHRIN], the HepSE_hepatomegaly in the data set on Hepatotoxicity [1] is 0. The same compound registered a HepSE_hepatitis in the data set with Hepatotoxicity [2] of 0. For the same compound, the “HepSE_Combined Scores” value in the data set with Hepatotoxicity [3] is reported as 0. In the data set on Hepatotoxicity [4], the HepSE_cholecystitis is listed as 0. The compound also came in with a HepSE_cholelithiasis with Hepatotoxicity [5] of 0. Besides, the “HepSE_liver function tests abnormal” value in the data set on Hepatotoxicity [6] turned out to be 0. Besides, in the data set with Hepatotoxicity [7], the HepSE_jaundice was found to be 0. Further, in the data set with Hepatotoxicity [8], the “HepSE_elevated liver function tests” value was determined as 0. The compound also displayed a HepSE_hepatic failure in the data set on Hepatotoxicity [9] of 0. The compound further had a HepSE_liver disease in the data set with Hepatotoxicity [10] of 0. Besides, the HepSE_liver fatty with Hepatotoxicity [11] was found to be 0. In addition, the HepSE_cirrhosis in the data set with Hepatotoxicity [12] is 0. In addition, the HepSE_hepatic necrosis with Hepatotoxicity [13] is 0. In the data set with Hepatotoxicity [14], this compound yielded a HepSE_bilirubinemia of 0.
In the data set on Hepatotoxicity [1], `CCN(CC)CCN1C(=O)CN=C(c2ccccc2F)c2cc(Cl)ccc21` [FLURAZEPAM] showed a HepSE_hepatomegaly of 0. Moreover, the HepSE_hepatitis with Hepatotoxicity [2] is on record as 0. Also, in the data set with Hepatotoxicity [3], the “HepSE_Combined Scores” value was found to be 0. The HepSE_cholecystitis in the data set with Hepatotoxicity [4] was 0. The compound further yielded a HepSE_cholelithiasis in the data set on Hepatotoxicity [5] of 0. Moreover, the “HepSE_liver function tests abnormal” value in the data set on Hepatotoxicity [6] worked out at 0. The compound further returned a HepSE_jaundice in the data set on Hepatotoxicity [7] of 0. Moreover, the “HepSE_elevated liver function tests” value with Hepatotoxicity [8] stood at 0. For the same compound, the HepSE_hepatic failure in the data set with Hepatotoxicity [9] amounted to 0. For the same compound, the HepSE_liver disease in the data set on Hepatotoxicity [10] is listed as 0. Further, in the data set on Hepatotoxicity [11], the HepSE_liver fatty was 0. In the data set on Hepatotoxicity [12], this compound displayed a HepSE_cirrhosis of 0. The HepSE_hepatic necrosis in the data set on Hepatotoxicity [13] was 0. This compound showed a HepSE_bilirubinemia with Hepatotoxicity [14] of 0.
The compound COLESEVELAM HYDROCHLORIDE returned a HepSE_hepatomegaly in the data set on Hepatotoxicity [1] of 0. This compound also had a HepSE_hepatitis in the data set on Hepatotoxicity [2] of 0. Besides, in the data set on Hepatotoxicity [3], the “HepSE_Combined Scores” value is reported as 0. For the same compound, the HepSE_cholecystitis with Hepatotoxicity [4] turned out to be 0. For the same compound, the HepSE_cholelithiasis with Hepatotoxicity [5] was found to be 0. For the same compound, the “HepSE_liver function tests abnormal” value with Hepatotoxicity [6] stood at 0. Besides, in the data set on Hepatotoxicity [7], the HepSE_jaundice worked out at 0. The “HepSE_elevated liver function tests” value in the data set on Hepatotoxicity [8] was 0. Besides, the HepSE_hepatic failure with Hepatotoxicity [9] is on record as 0. The compound further showed a HepSE_liver disease in the data set on Hepatotoxicity [10] of 0. Also, the HepSE_liver fatty in the data set on Hepatotoxicity [11] was 0. The HepSE_cirrhosis in the data set with Hepatotoxicity [12] was found to be 0. The same compound had a HepSE_hepatic necrosis in the data set with Hepatotoxicity [13] of 0. The HepSE_bilirubinemia in the data set on Hepatotoxicity [14] came to 0.
As to `C[C@H](CCC(=O)O)[C@H]1CC[C@H]2[C@@H]3[C@@H](O)C[C@@H]4C[C@H](O)CC[C@]4(C)[C@H]3CC[C@]12C` [URSODIOL], in the data set with Hepatotoxicity [1], the HepSE_hepatomegaly amounted to 0. The compound further returned a HepSE_hepatitis in the data set with Hepatotoxicity [2] of 0. Further, in the data set on Hepatotoxicity [3], the “HepSE_Combined Scores” value amounted to 1. The HepSE_cholecystitis with Hepatotoxicity [4] stood at 1. For the same compound, in the data set with Hepatotoxicity [5], the HepSE_cholelithiasis is 0. Besides, the “HepSE_liver function tests abnormal” value with Hepatotoxicity [6] turned out to be 0. In addition, in the data set on Hepatotoxicity [7], the HepSE_jaundice was 0. For the same compound, the “HepSE_elevated liver function tests” value in the data set on Hepatotoxicity [8] is 0. Moreover, the HepSE_hepatic failure in the data set on Hepatotoxicity [9] is recorded as 0. In addition, in the data set with Hepatotoxicity [10], the HepSE_liver disease was 0. This compound returned a HepSE_liver fatty in the data set with Hepatotoxicity [11] of 0. In the data set on Hepatotoxicity [12], this compound had a HepSE_cirrhosis of 0. Besides, the HepSE_hepatic necrosis with Hepatotoxicity [13] stood at 0. In the data set on Hepatotoxicity [14], this compound had a HepSE_bilirubinemia of 0.
As for `OCCOCCN1CCN(C(c2ccccc2)c2ccc(Cl)cc2)CC1` (stereo unspecified) [HYDROXYZINE], in the data set with Hepatotoxicity [1], the HepSE_hepatomegaly was found to be 0. This compound also displayed a HepSE_hepatitis in the data set on Hepatotoxicity [2] of 0. The “HepSE_Combined Scores” value with Hepatotoxicity [3] was found to be 0. The compound further yielded a HepSE_cholecystitis in the data set with Hepatotoxicity [4] of 0. In the data set on Hepatotoxicity [5], this compound came in with a HepSE_cholelithiasis of 0. For the same compound, in the data set with Hepatotoxicity [6], the “HepSE_liver function tests abnormal” value came to 0. The HepSE_jaundice in the data set with Hepatotoxicity [7] is on record as 0. In addition, in the data set on Hepatotoxicity [8], the “HepSE_elevated liver function tests” value was 0. The compound further had a HepSE_hepatic failure with Hepatotoxicity [9] of 0. This compound registered a HepSE_liver disease in the data set with Hepatotoxicity [10] of 0. Moreover, in the data set with Hepatotoxicity [11], the HepSE_liver fatty is on record as 0. In the data set with Hepatotoxicity [12], this compound registered a HepSE_cirrhosis of 0. This compound also gave a HepSE_hepatic necrosis with Hepatotoxicity [13] of 0. Moreover, in the data set with Hepatotoxicity [14], the HepSE_bilirubinemia is given as 0.
The compound `O=C1Nc2ccc(Cl)cc2[C@@](C#CC2CC2)(C(F)(F)F)O1` [EFAVIRENZ] yielded a HepSE_hepatomegaly in the data set on Hepatotoxicity [1] of 1. In the data set with Hepatotoxicity [2], the HepSE_hepatitis is recorded as 1. Moreover, in the data set on Hepatotoxicity [3], the “HepSE_Combined Scores” value was 4. Besides, the HepSE_cholecystitis in the data set with Hepatotoxicity [4] is listed as 0. In addition, the HepSE_cholelithiasis in the data set on Hepatotoxicity [5] was 0. For the same compound, the “HepSE_liver function tests abnormal” value in the data set on Hepatotoxicity [6] is 0. In the data set with Hepatotoxicity [7], the HepSE_jaundice was determined as 1. In addition, the “HepSE_elevated liver function tests” value with Hepatotoxicity [8] was determined as 0. The compound also yielded a HepSE_hepatic failure with Hepatotoxicity [9] of 1. This compound returned a HepSE_liver disease with Hepatotoxicity [10] of 0. The HepSE_liver fatty in the data set with Hepatotoxicity [11] is given as 0. Moreover, in the data set on Hepatotoxicity [12], the HepSE_cirrhosis stood at 0. In the data set on Hepatotoxicity [13], this compound gave a HepSE_hepatic necrosis of 0. The same compound gave a HepSE_bilirubinemia in the data set with Hepatotoxicity [14] of 0.
Regarding `COc1cc2nc(N(C)CCCNC(=O)C3CCCO3)nc(N)c2cc1OC` (stereo unspecified) [ALFUZOSIN], the HepSE_hepatomegaly in the data set on Hepatotoxicity [1] was found to be 0. Moreover, in the data set with Hepatotoxicity [2], the HepSE_hepatitis was 0. In addition, the “HepSE_Combined Scores” value with Hepatotoxicity [3] is given as 2. In the data set with Hepatotoxicity [4], this compound had a HepSE_cholecystitis of 0. Also, the HepSE_cholelithiasis with Hepatotoxicity [5] came out at 0. In addition, the “HepSE_liver function tests abnormal” value with Hepatotoxicity [6] was 0. This compound also registered a HepSE_jaundice in the data set on Hepatotoxicity [7] of 1. The “HepSE_elevated liver function tests” value with Hepatotoxicity [8] is 0. In addition, the HepSE_hepatic failure in the data set on Hepatotoxicity [9] was 0. Besides, the HepSE_liver disease in the data set with Hepatotoxicity [10] is given as 1. The compound also returned a HepSE_liver fatty in the data set on Hepatotoxicity [11] of 0. The same compound displayed a HepSE_cirrhosis with Hepatotoxicity [12] of 0. The compound also had a HepSE_hepatic necrosis with Hepatotoxicity [13] of 0. Moreover, in the data set on Hepatotoxicity [14], the HepSE_bilirubinemia came to 0.
In the case of `CN1C(CSCC(F)(F)F)Nc2cc(Cl)c(S(N)(=O)=O)cc2S1(=O)=O` (stereo unspecified) [POLYTHIAZIDE], the HepSE_hepatomegaly with Hepatotoxicity [1] turned out to be 0. For the same compound, in the data set with Hepatotoxicity [2], the HepSE_hepatitis is on record as 0. The “HepSE_Combined Scores” value with Hepatotoxicity [3] is on record as 1. In addition, in the data set on Hepatotoxicity [4], the HepSE_cholecystitis was 0. Further, the HepSE_cholelithiasis with Hepatotoxicity [5] amounted to 0. The “HepSE_liver function tests abnormal” value in the data set on Hepatotoxicity [6] worked out at 0. The HepSE_jaundice in the data set with Hepatotoxicity [7] is 1. Moreover, the “HepSE_elevated liver function tests” value in the data set on Hepatotoxicity [8] was determined as 0. This compound registered a HepSE_hepatic failure in the data set with Hepatotoxicity [9] of 0. In the data set on Hepatotoxicity [10], this compound returned a HepSE_liver disease of 0. The compound further had a HepSE_liver fatty in the data set with Hepatotoxicity [11] of 0. In the data set with Hepatotoxicity [12], this compound had a HepSE_cirrhosis of 0. In the data set with Hepatotoxicity [13], this compound registered a HepSE_hepatic necrosis of 0. In the data set with Hepatotoxicity [14], this compound showed a HepSE_bilirubinemia of 0.
Compound `COc1cc(NC(C)CCCN)c2ncccc2c1` (stereo unspecified) [PRIMAQUINE] returned a HepSE_hepatomegaly in the data set on Hepatotoxicity [1] of 0. Also, in the data set on Hepatotoxicity [2], the HepSE_hepatitis is on record as 0. Besides, the “HepSE_Combined Scores” value with Hepatotoxicity [3] was 0. The compound further came in with a HepSE_cholecystitis in the data set on Hepatotoxicity [4] of 0. Moreover, the HepSE_cholelithiasis in the data set on Hepatotoxicity [5] was 0. Further, in the data set with Hepatotoxicity [6], the “HepSE_liver function tests abnormal” value is 0. In the data set on Hepatotoxicity [7], this compound came in with a HepSE_jaundice of 0. In addition, the “HepSE_elevated liver function tests” value in the data set with Hepatotoxicity [8] is 0. Also, the HepSE_hepatic failure in the data set on Hepatotoxicity [9] came to 0. Also, the HepSE_liver disease with Hepatotoxicity [10] was 0. In addition, the HepSE_liver fatty in the data set on Hepatotoxicity [11] came to 0. The compound further had a HepSE_cirrhosis in the data set on Hepatotoxicity [12] of 0. The compound further had a HepSE_hepatic necrosis with Hepatotoxicity [13] of 0. The compound further registered a HepSE_bilirubinemia in the data set with Hepatotoxicity [14] of 0.
